Data: patent US20060063784A1, “Method of using substituted pyrazolo [1,5-a] pyrimidines” (priority 2004, published 2006)

Test system: 80S14 (p21-deficient) cells
Experiment: Cytotoxicity assay using isogenic cell lines: IC50 in 80S14 (p21-deficient) cells, SRB
Format: cell-based, human
Details: 80S14 p21-deficient cells, 5 days incubation, SRB; read-out: IC50 for 80SI4
Experimental: Cytotoxicity Assay Using Isogenic Cell Lines: • 1. 80S14 (p21-deficient) cells were cultured in RPMI 1640 medium (Gibco/Invitrogen Life technologies) supplemented with 10% fetal bovine serum (FBS, Gibco) and 10 μg/ml gentamycin (Gibco). Cells were maintained at 37° C. under 7% CO2 • 2. Cells were plated at 6×10^4/ml (0.2 ml/well; 12,000 cells/well) in 96-well microtiter plates (Falcon or Corning/Costar) and incubated at 37° C. overnight (18-24 hours). • 3. 2-5 μl of the test agent [200 μg/ml stock in 20% DMSO/20 mM HEPES, pH 7.5 (Gibco)] was added to each well to achieve a final concentration of 2-5 μg/ml. Cells were incubated with the test compounds for 5 days at 37° C. • 4. Surviving cells were fixed with 50 μl 50% trichloroacetic acid (Sigma; 10% final concentration) for 1 hour at 4° C. • 5. Plates were rinsed twice with water (0.3 ml per wash using MRD8 robot), and allowed to dry. • 6. Sulforhodamine B (SRB) (Sigma; 0.4% in 1% acetic acid, 50 μl per well; MRD8 robot) was added and plates kept at room temperature for 10 minutes. • 7. Excess dye was removed by washing with 1% acetic acid (3 times, 0.3 ml per wash; MRD8 robot) and allowed to dry. • 8. The dye was solubilized in Tris base (Sigma; 10 mM, 150 μl per well). Plates were kept at room temperature for 30 minutes to allow the dye to diffuse. • 9. Absorbance was measured at 540 nm. • 10. The percentage of cells surviving drug treatment relative to control wells (no drug) was determined. • 11. The difference in % cell survival between the two cell lines was calculated. • 12. Compounds producing a difference score of >50 were considered to be selective for the p21-deficient cells and were evaluated further: Determination of selectivity of compounds for p21−/− cells: • 1. 80S14 cells were cultured as described above. • 2. Cells were seeded in 96-well microtiter plates at 12,000 cells/well (either 0.15 ml/well of 8×10^4 cells/ml suspension, or 0.2 ml/well of 6×10^4 cells/ml suspension). Plates were incubated at 37° C. overnight (18-24 hours). • 3. Serial dilutions of the test agent were added to each well. Dilutions were prepared either in 40% DMSO/20% methanol/20 mM HEPES, pH 7.5 (Gibco) or directly in growth medium. One of two dose ranges were used: 5 pM to 50 μM or 170 pg/ml to 10 μg/ml. Cells were incubated with the test compounds for 5 days at 37° C. • 4. Surviving cells were fixed with 50 μl 50% trichloroacetic acid (Sigma; 10% final concentration) for 1 hour at 4° C. • 5. Plates were rinsed extensively in water, and allowed to dry. • 6. Sulforhodamine B (Sigma; 0.4% in 1% acetic acid, 70 μl per well) was added and plates kept at room temperature for 10 minutes. • 7. Excess dye was removed by washing 5 times with 1% acetic acid and plates were allowed to dry. • 8. The dye was solubilized in Tris base (Sigma; 10 mM, 150 μl per well). Plates were placed on a titer plate shaker (Lab Line Instruments) for 5 minutes to allow the dye to diffuse. • 9. Absorbance was measured at 560 nm.
10. The drug concentration that inhibits cell proliferation by 50% relative to untreated controls (IC50) was determined from cytotoxicity curves.

SMILES | IC50 [µM]
N[C@@H](CC1CCCCC1)C(=O)Nc1cccc(-c2ccnc3c(C(=O)c4cccs4)cnn23)c1 [Example 82, 3-cyclohexyl-N-1-[3-[3-(thien-2-ylcarbonyl)pyrazolo[1,5-a]pyrimidin-7-yl]phenyl}-L-alaninamide] | 10 to 50
NCC(=O)Nc1cccc(-c2ccnc3c(C(=O)c4cccs4)cnn23)c1 [Example 77, N-1-{3-[3-(thien-2-ylcarbonyl)pyrazolo[1,5-a]pyrimidin-7-yl]phenyl}gylcinamide] | 10 to 50
CCCCCNC(=O)NCC(=O)Nc1cccc(-c2ccnc3c(C(=O)c4cccs4)cnn23)c1 [Example 136, N-2-[(pentylamino)carbonyl]-N-1-{3-[3-(thien-2-ylcarbonyl)pyrazolo[1,5-a]pyrimidin-7-yl]phenyl}gylcinamide] | 10 to 50

Same assay, conditions: Homo sapiens, 80S14, 120 h, read-out: IC50 for 80S14 (uM)

SMILES | IC50 [µM]
O=CNc1cccc(-c2ccnc3c(C(=O)c4cccs4)cnn23)c1 [Example 260, N-[3-[3-(2-Thienylcarbonyl)pyrazolo[1,5-a]pyrimidin-7-yl]phenyl}-formamide] | 1 to 10
CC(=O)N(C)c1cccc(-c2ccnc3c(C(=O)c4cccs4)cnn23)c1 [Example 238, N-Methyl-N-[3-[3-(2-thienylcarbonyl)-pyrazolo[1,5-a]pyrimidin-7-yl]phenyl}-acetamide] | 10 to 50

Same assay, conditions: Homo sapiens, 120 h; 80S14 (p21-deficient) cells, 5 days, SRB; class symbols; read-out: IC50 for 80S14

SMILES | IC50 [µM]
Cc1ccc(C(=O)c2cnn3c(-c4cccc(NC(=O)C5CC5)c4)ccnc23)s1 [Example 252, N-[3-[3-[(5-Methyl-2-thienyl)carbonyl]pyrazolo[1,5-a]pyrimidin-7-yl]phenyl}-cyclopropanecarboxamide] | 1 to 10
O=C(c1cccs1)c1cnn2c(-c3cccc(-n4cccc4)c3)ccnc12 [Example 270, [7-[3-(1H-Pyrrol-1-yl)phenyl]pyrazolo[1,5-a]pyrimidin-3-yl]-2-thienyl-methanone] | 1 to 10
CC(C)(C)c1ccc(C(=O)Nc2cccc(-c3ccnc4c(C(=O)c5cccs5)cnn34)c2)cc1 [Example 287, 4-(tert-butyl)-N-{3-[3-(2-thienylcarbonyl)pyrazolo[1,5-a]pyrimidin-7-yl]phenyl}benzamide] | 10 to 50
CCCCCC/C(=C\c1ccccc1)CNc1cccc(-c2ccnc3c(C(=O)c4cccs4)cnn23)c1 [Example 409, [7-(3-{[(2E)-2-Hexyl-3-phenylprop-2-enyl]amino}phenyl)pyrazolo[1,5-a]pyrimidin-3-yl] (thien-2-yl)methanone] | 10 to 50
CNc1cccc(-c2ccnc3c(C(=O)c4cccs4)cnn23)c1 [Example 266, [7-[3-(Methylamino)phenyl]pyrazolo[1,5-a]pyrimidin-3-yl]-2-thienyl-methanone] | 1 to 10
CCCC(C)CNc1cccc(-c2ccnc3c(C(=O)c4cccs4)cnn23)c1 (stereo not shown) [Example 418, (7-{3-[(2-Methylpentyl)amino]phenyl}pyrazolo[1,5-a]pyrimidin-3-yl)(thien-2-yl)methanone] | 1 to 10
Cc1cc(-c2cccc(NC(=O)C3CCC3)c2)n2ncc(C(=O)c3cccs3)c2n1 [Example 279, N-{3-[5-Methyl-3-(2-thienylcarbonyl)pyrazolo[1,5-a]pyrimidin-7-yl]phenyl}cyclobutanecarboxamide] | < 1
C#CCN(C(=O)C1CC1)c1cccc(-c2ccnc3c(C(=O)c4cccs4)cnn23)c1 [Example 259, N-2-Propynyl-N-[3-[3-(2-thienylcarbonyl)pyrazolo[1,5-a]pyrimidin-7-yl]phenyl}-cyclopropanecarboxamide] | 1 to 10
CN(C(=O)C1CC1)c1cccc(-c2ccnc3c(C(=O)c4ccccc4)cnn23)c1 [Example 236, N-[3-(3-benzoylpyrazolo[1,5-a]-pyrimidin-7-yl)phenyl]-N-methyl-cyclopropanecarboxamide] | 10 to 50
COc1ccc(-c2ccnc3c(C(=O)c4cccs4)cnn23)cc1NC(=O)NC(C)C [Example 323, N-Isopropyl-N′-{2-methoxy-5-[3-(2-thienylcarbonyl)pyrazolo[1,5-a]pyrimidin-7-yl]phenyl}urea] | 1 to 10

Same assay, conditions: Homo sapiens, 120 h; 80S14 p21-deficient cells, 5 days incubation, SRB; read-out: IC50 for 80SI4

SMILES | IC50 [µM]
O=C(CNC(=O)OCCCl)Nc1cccc(-c2ccnc3c(C(=O)c4cccs4)cnn23)c1 [Example 120, 2-chloroethyl-2-oxo-2-({3-[3-(thien-2-ylcarbonyl)pyrazolo[1,5-a]pyrimidin-7-yl]phenyl}amino)ethylcarbamate] | 1 to 10
CS(=O)(=O)Nc1cccc(-c2ccnc3c(C(=O)c4cccs4)cnn23)c1 [Example 27, N-{3-[3-(thien-2-ylcarbonyl)pyrazolo[1,5-a]pyrimidin-7-yl]phenyl} methanesulfonamide] | 1 to 10
O=C(Nc1cccc(-c2ccnc3c(C(=O)c4cccs4)cnn23)c1)c1cccc2ccccc12 [Example 103, N-{3-[3-(thien-2-ylcarbonyl)pyrazolo[1,5-a]pyrimidin-7-yl]phenyl}-1-naphthamide] | < 1
C=CCNC(=O)Nc1cccc(-c2ccnc3c(C(=O)c4cccs4)cnn23)c1 [Example 7, N-allyl-N′-{3-[3-(thien-2-ylcarbonyl)pyrazolo[1,5-a]pyrimidin-7-yl]phenyl}urea] | < 1
O=C(c1cccs1)c1cnn2c(-c3cccc(NS(=O)(=O)c4ccc(Br)cc4)c3)ccnc12 [Example 35, 4-bromo-N-{3-[3-(thien-2-ylcarbonyl)pyrazolo[1,5-a]pyrimidin-7-yl]phenyl}benzenesulfonamide] | 1 to 10
O=C(c1cccs1)c1cnn2c(-c3cccc(NS(=O)(=O)c4cccs4)c3)ccnc12 [Example 38, N-{3-[3-(thien-2-ylcarbonyl)pyrazolo[1,5-a]pyrimidin-7-yl]phenyl}thiophene-2-sulfonamide] | 1 to 10
O=C(CC1Cc2ccccc2C1)Nc1cccc(-c2ccnc3c(C(=O)c4cccs4)cnn23)c1 [Example 67, 2-(2,3-dihydro-1H-inden-2-yl)-N-{3-[3-(thien-2-ylcarbonyl)pyrazolo[1,5-a]pyrimidin-7-yl]phenyl}acetamide] | < 1
O=C(Nc1cccc(-c2ccnc3c(C(=O)c4cccs4)cnn23)c1)c1ccc(Cl)c(Cl)c1 [Example 100, 3,4-dichloro-N-{3-[3-(thien-2-ylcarbonyl)pyrazolo[1,5-a]pyrimidin-7-yl]phenyl}benzamide] | 10 to 50
Cc1cnc2c(C(=O)c3cccs3)cnn2c1-c1cccc(NC(=O)CC(C)C)c1 [Example 215, 3-methyl-N-{3-[6-methyl-3-(thien-2-ylcarbonyl)pyrazolo[1,5-a]pyrimidin-7-yl]phenyl}butanamide] | 10 to 50
CCCCOC(=O)Nc1cccc(-c2c(C)cnc3c(C(=O)c4cccs4)cnn23)c1 [Example 209, butyl 3-[6-methyl-3-(thien-2-ylcarbonyl)pyrazolo[1,5-a]pyrimidin-7-yl]phenylcarbamate] | 10 to 50
Cc1ccc(S(=O)(=O)Nc2cccc(-c3ccnc4c(C(=O)c5cccs5)cnn34)c2)cc1 [Example 32, 4-methyl-N-{3-[3-(thien-2-ylcarbonyl)pyrazolo[1,5-a]pyrimidin-7-yl]phenyl}benzenesulfonamide] | < 1
O=C(Nc1cccc(-c2ccnc3c(C(=O)c4cccs4)cnn23)c1)OCc1ccccc1 [Example 24, benzyl 3-[3-(thien-2-ylcarbonyl)pyrazolo[1,5-a]pyrimidin-7-yl]phenylcarbamate] | < 1
O=C(NC(=O)C(Cl)(Cl)Cl)Nc1cccc(-c2ccnc3c(C(=O)c4cccs4)cnn23)c1 [Example 9, N-{3-[3-(thien-2-ylcarbonyl)pyrazolo[1,5-a]pyrimidin-7-yl]phenyl}-N′-(trichloroacetyl)urea] | 1 to 10
